Data from US20190048016A1, “SUBSTITUTED BRIDGED UREA ANALOGS AS SIRTUIN MODULATORS” (GlaxoSmithKline Intellectual Property(No.2)Limited, priority 2014, published 2019).
Counter-ions that a name gives are not always drawn.

Molecular target: T1, SIRT1 (Homo sapiens, UniProt Q96EB6)
T1 sequence (Q96EB6 1-747): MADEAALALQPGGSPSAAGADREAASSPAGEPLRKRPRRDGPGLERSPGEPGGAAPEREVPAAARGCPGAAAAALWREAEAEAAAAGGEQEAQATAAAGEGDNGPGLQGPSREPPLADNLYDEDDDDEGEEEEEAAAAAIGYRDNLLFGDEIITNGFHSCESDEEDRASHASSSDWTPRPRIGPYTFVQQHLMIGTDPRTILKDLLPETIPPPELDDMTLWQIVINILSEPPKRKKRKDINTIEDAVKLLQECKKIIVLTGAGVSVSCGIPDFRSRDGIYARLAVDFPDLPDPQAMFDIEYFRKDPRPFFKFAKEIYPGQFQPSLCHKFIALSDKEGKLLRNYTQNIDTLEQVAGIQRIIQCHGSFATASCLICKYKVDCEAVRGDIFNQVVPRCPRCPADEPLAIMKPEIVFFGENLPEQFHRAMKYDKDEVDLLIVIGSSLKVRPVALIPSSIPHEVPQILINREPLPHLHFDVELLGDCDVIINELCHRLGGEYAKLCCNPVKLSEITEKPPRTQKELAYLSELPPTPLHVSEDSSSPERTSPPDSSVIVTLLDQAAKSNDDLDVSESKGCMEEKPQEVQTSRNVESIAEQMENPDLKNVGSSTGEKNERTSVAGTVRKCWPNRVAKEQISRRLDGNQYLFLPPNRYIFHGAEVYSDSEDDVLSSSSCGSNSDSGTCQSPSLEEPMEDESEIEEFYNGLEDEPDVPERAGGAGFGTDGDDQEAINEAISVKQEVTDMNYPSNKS
Experiment: Trp mass spectrometry assay of SIRT1 activation (deacetylation of Ac-R-H-K-K(Ac)-W-NH2 peptide, OAADPR formation)
Type: biochemical
Conditions: Trp peptide 0.5 μM, 120 μM βNAD+, 10 nM SIRT1, 25 min, 25° C.; for Emax: 25 min, read-out: TRP MAX RESP (percent maximum fold activation relative to control = 100%)
Source text: Mass spectrometry based assays were used to identify modulators of SIRT1 activity. The TAMRA based assay utilized a peptide having 20 amino acid residues as follows: Ac-EE-K(biotin)-[…](Ac)NleSTEG-K(5TMR)-EE-NH2 (SEQ ID NO: 1), wherein K(Ac) is an acetylated lysine residue and Nle is a norleucine. The peptide was labeled with the fluorophore 5TMR (excitation 540 nm/emission 580 nm) at the C-terminus. The sequence of the peptide substrate was based on p53 with several modifications. In addition, the methionine residue naturally present in the sequence was replaced with the norleucine because the methionine may be susceptible to oxidation during synthesis and purification. The Trp based assay utilized a peptide having an amino acid residues as follows: Ac-R-H-K-K(Ac)-W-NH2 (SEQ ID NO: 2).
The Trp mass spectrometry assay was conducted as follows. 0.5 μM peptide substrate and 120 μM βNAD^+ were incubated with 10 nM SIRT1 for 25 minutes at 25° C. in a reaction buffer (50 mM HEPES pH 7.5, […], 1 mM DTT, 0.05% BSA). The SIRT1 protein was obtained by cloning the SirT1 gene into a T7-promoter containing vector, which was then expressed in BL21(DE3) bacterial cells and purified as described in further detail below. Test compound was added at varying concentrations to this reaction mixture and the resulting reactions were monitored. After the 25 minute incubation with SIRT1, 10 μL of 10% formic acid was added to stop the reaction. The resulting reactions were sealed and frozen for later mass spec analysis. The relative SIRT1 activity was then determined by measuring the amount of O-acetyl-ADP-ribose (OAADPR) formed (or, alternatively, the amount of deacetylated Trp peptide generated) by the NAD-dependent sirtuin deacetylation reaction in the presence of varying concentrations of the test compound versus control reactions lacking the test compound. The degree to which the test agent activated deacetylation by SIRT1 was expressed as EC1.5 (i.e., the concentration of compound required to increase SIRT1 activity by 50% over the control lacking test compound), and Percent Maximum Activation (i.e., the maximum activity relative to control (100%) obtained for the test compound).
A control for inhibition of sirtuin activity was conducted by adding 1 μL of 500 mM nicotinamide as a negative control at the start of the reaction (e.g., permits determination of maximum sirtuin inhibition). A control for activation of sirtuin activity was conducted using 10 nM of sirtuin protein, with 1 μL of DMSO in place of compound, to determine the amount of deacetylation of the substrate at a given time point within the linear range of the assay. This time point was the same as that used for test compounds and, within the linear range, the endpoint represents a change in velocity.
For the above assay, SIRT1 protein was expressed and purified as follows. The SirT1 gene was cloned into a T7-promoter containing vector and transformed into BL21(DE3). The protein was expressed by induction with 1 mM IPTG as an N-terminal His-tag fusion protein at 18° C. overnight and harvested at 30,000×g. Cells were lysed with lysozyme in lysis buffer (50 mM Tris-HCl, 2 mM Tris[2-carboxyethyl] phosphine (TCEP), 10 μM ZnCl2, 200 mM NaCl) and further treated with sonication for 10 min for complete lysis. The protein was purified over a Ni-NTA column (Amersham) and fractions containing pure protein were pooled, concentrated and run over a sizing column (Sephadex S200 26/60 global). The peak containing soluble protein was collected and run on an Ion-exchange column (MonoQ). Gradient elution (200 mM-500 mM NaCl) yielded pure protein. This protein was concentrated and dialyzed against dialysis buffer (20 mM Tris-HCl, 2 mM TCEP) overnight. The protein was aliquoted and frozen at −80° C. until further use.
Sirtuin-modulating compounds of Formula (I) that activated SIRT1 were identified using the assay described above and are shown below in Table 1. […]

SMILES: O=C(Nc1ccccn1)N1c2nc(N3CCC(C(F)(F)F)C3)ccc2N2CCC[C@H]1C2 (single isomer, unassigned) [Example 8]
- Emax: ≥ 150%
- TRP Activity (EC1.5, concentration of compound required to increase SIRT1 activity by 50% over control): B (EC1.5 1-25 μM)

SMILES: O=C(Nc1ccccn1)N1c2nc(N3CCCC(C(F)(F)F)C3)ccc2N2CCC[C@H]1C2 (single isomer, unassigned) [Example 11]
- Emax: ≥ 150%
- TRP Activity (EC1.5, concentration of compound required to increase SIRT1 activity by 50% over control): A (EC1.5<1 μM)

SMILES: O=C(Nc1ncccn1)N1c2nc(N3CCCC(C(F)(F)F)C3)ccc2N2CCC[C@H]1C2 (single isomer, unassigned) [Example 18]
- Emax: ≥ 150%
- TRP Activity (EC1.5, concentration of compound required to increase SIRT1 activity by 50% over control): A (EC1.5<1 μM)

SMILES: O=C(Nc1ncccn1)N1c2nc(N3CCCC(C(F)(F)F)C3)ccc2N2CCC[C@H]1C2 (single isomer, unassigned) [Example 22]
- TRP Activity (EC1.5, concentration of compound required to increase SIRT1 activity by 50% over control): A (EC1.5<1 μM)

SMILES: O=C(Nc1ccccn1)N1c2nc(N3CCCC(C(F)(F)F)C3)ccc2N2CCC[C@H]1C2 (single isomer, unassigned) [Example 23]
- TRP Activity (EC1.5, concentration of compound required to increase SIRT1 activity by 50% over control): B (EC1.5 1-25 μM)
- TRP MAX RESP (percent maximum fold activation relative to control = 100%): A (Fold activation≥150%)

SMILES: O=C(Nc1ccc(F)cn1)N1c2nc(N3CCCC(C(F)(F)F)C3)ccc2N2CCC[C@H]1C2 (single isomer, unassigned) [Example 24]
- Emax: ≥ 150%
- TRP Activity (EC1.5, concentration of compound required to increase SIRT1 activity by 50% over control): A (EC1.5<1 μM)

SMILES: O=C(Nc1cccnc1)N1c2nc(N3CCCC(C(F)(F)F)C3)ccc2N2CCC[C@H]1C2 (single isomer, unassigned) [Example 25]
- Emax: ≥ 150%
- TRP Activity (EC1.5, concentration of compound required to increase SIRT1 activity by 50% over control): A (EC1.5<1 μM)

SMILES: O=C(Nc1cnccn1)N1c2nc(N3CCC[C@H](C(F)(F)F)C3)ccc2N2CCC[C@H]1C2 (single isomer, unassigned) [Example 27]
- Emax: ≥ 150%
- TRP Activity (EC1.5, concentration of compound required to increase SIRT1 activity by 50% over control): A (EC1.5<1 μM)

SMILES: O=C(Nc1cccnc1)N1c2nc(N3CCCC(C(F)(F)F)C3)ccc2N2CCC[C@H]1C2 (single isomer, unassigned) [Example 28]
- TRP Activity (EC1.5, concentration of compound required to increase SIRT1 activity by 50% over control): A (EC1.5<1 μM)

SMILES: O=C(Nc1ccc(F)cn1)N1c2nc(N3CCCC(C(F)(F)F)C3)ccc2N2CCC[C@H]1C2 (single isomer, unassigned) [Example 29]
- TRP Activity (EC1.5, concentration of compound required to increase SIRT1 activity by 50% over control): B (EC1.5 1-25 μM)
- TRP MAX RESP (percent maximum fold activation relative to control = 100%): A (Fold activation≥150%)

SMILES: O=C(Nc1cnccn1)N1c2nc(N3CCCC(C(F)(F)F)C3)ccc2N2CCC[C@H]1C2 (single isomer, unassigned) [Example 30]
- Emax: ≥ 150%
- TRP Activity (EC1.5, concentration of compound required to increase SIRT1 activity by 50% over control): A (EC1.5<1 μM)

SMILES: O=C(Nc1ccccn1)N1c2nc(N3CCC(C(F)(F)F)C3)ccc2N2CCC[C@H]1C2 (single isomer, unassigned) [Example 31, hydrochloride]
- TRP Activity (EC1.5, concentration of compound required to increase SIRT1 activity by 50% over control) (hydrochloride): A (EC1.5<1 μM)

SMILES: Cc1ccc2c(NC(=O)N3c4nc(C(=O)NC(CO)C(F)(F)F)ccc4N4CCC[C@H]3C4)n[nH]c2n1 (single isomer, unassigned) [Example 45]
- Emax: ≥ 150%
- TRP Activity (EC1.5, concentration of compound required to increase SIRT1 activity by 50% over control): B (EC1.5 1-25 μM)

SMILES: Cc1ccc2c(NC(=O)N3c4nc(C(=O)NC(CO)C(F)(F)F)ccc4N4CCC[C@H]3C4)n[nH]c2n1 (single isomer, unassigned) [Example 46]
- TRP Activity (EC1.5, concentration of compound required to increase SIRT1 activity by 50% over control): A (EC1.5<1 μM)
- TRP MAX RESP (percent maximum fold activation relative to control = 100%): A (Fold activation≥150%)

SMILES: Cc1ccc2c(NC(=O)N3c4nc(C(=O)NC5CC5(F)F)ccc4N4CCC[C@H]3C4)n[nH]c2n1 (single isomer, unassigned) [Example 48]
- Emax: ≥ 150%
- TRP Activity (EC1.5, concentration of compound required to increase SIRT1 activity by 50% over control): A (EC1.5<1 μM)

SMILES: O=C(NC1CC1(F)F)c1ccc2c(n1)N(C(=O)Nc1cc(OC[C@H](O)CO)ccn1)[C@H]1CCCN2C1 (single isomer, unassigned) [Example 50]
- Emax: ≥ 150%
- TRP Activity (EC1.5, concentration of compound required to increase SIRT1 activity by 50% over control): A (EC1.5<1 μM)

SMILES: O=C(NC1CC1(F)F)c1ccc2c(n1)N(C(=O)Nc1cc(OC[C@H](O)CO)ccn1)[C@H]1CCCN2C1 (single isomer, unassigned) [Example 52]
- TRP Activity (EC1.5, concentration of compound required to increase SIRT1 activity by 50% over control): A (EC1.5<1 μM)

SMILES: Cc1ccc2c(NC(=O)N3c4nc(C(=O)NC5CC5(F)F)ccc4N4CCC[C@H]3C4)n[nH]c2n1 (single isomer, unassigned) [Example 53]
- TRP Activity (EC1.5, concentration of compound required to increase SIRT1 activity by 50% over control): A (EC1.5<1 μM)

SMILES: O=C(Nc1ccc(F)cn1)c1cc2c(nc1N1CCCC(C(F)(F)F)C1)N[C@H]1CCCN2C1 (single isomer, unassigned) [Example 58]
- Emax: ≤ 150%

SMILES: O=C(Nc1cnccn1)c1cc2c(nc1N1CCCC(C(F)(F)F)C1)N[C@H]1CCCN2C1 (single isomer, unassigned) [Example 59]
- Emax: ≤ 150%

SMILES: O=C(Nc1cccnc1)c1cc2c(nc1N1CCCC(C(F)(F)F)C1)N[C@H]1CCCN2C1 (single isomer, unassigned) [Example 60]
- Emax: ≤ 150%

SMILES: O=C(Nc1cncc(OCC(O)CO)n1)N1c2nc(-c3cccc(C(F)(F)F)c3)c(Cl)cc2N2CCC[C@H]1C2 (stereo in doubt) [Example 67, (9S)-3-chloro-N-(6-((R)-2,3-dihydroxypropoxy)pyrazin-2-yl)-2-(3-(trifluoromethyl)phenyl)-8,9-dihydro-6H-5,9-methanopyrido[2,3-b][1,4]diazocine-10(7H)-carboxamide]
- Emax: ≥ 150%
- TRP Activity (EC1.5, concentration of compound required to increase SIRT1 activity by 50% over control): A (EC1.5<1 μM)

SMILES: O=C(Nc1ccccn1)N1c2nc(N3CCC[C@H]3C(F)(F)F)ccc2N2CCC[C@H]1C2 [Example 1, (9S)-N-(pyridin-2-yl)-2-((S)-2-(trifluoromethyl)pyrrolidin-1-yl)-8,9-dihydro-6H-5,9-methanopyrido[2,3-b][1,4]diazocine-10(7H)-carboxamide]
- Emax: ≥ 150%
- TRP Activity (EC1.5, concentration of compound required to increase SIRT1 activity by 50% over control): B (EC1.5 1-25 μM)
